{"source": "patent US20100158905A1", "about": "“COMBINATION THERAPY OF ARTHRITIS WITH TRANILAST” (NUON THERAPEUTICS, INC., priority 2008, published 2010)", "origin": "cited, not measured here"}
{"tested_on": "RA", "settings": "used in combination with methotrexate"}
{"molecule": "Adalimumab", "improvements in treating RA": "marked improvements"}
{"molecule": "Etanercept", "improvements in treating RA": "marked improvements"}
{"molecule": "infliximab: tumor necrosis factor (TNF) antagonist", "improvements in treating RA": "marked improvements"}
{"tested_on": "rheumatoid arthritis", "settings": "usual maintenance dose"}
{"molecule": "Cn1cnc([N+](=O)[O-])c1Sc1ncnc2nc[nH]c12", "note": "[Azathioprine]", "Approximate time to benefit": "2-3 months"}
{"molecule": "CC(C)(S)[C@@H](N)C(=O)O", "note": "[D-penicillamine]", "Approximate time to benefit": "3-6 months"}
{"molecule": "CCN(CCO)CCCC(C)Nc1ccnc2cc(Cl)ccc12", "note": "(stereo not shown) [Hydroxychloroquine]", "Approximate time to benefit": "2-6 months"}
{"molecule": "Cc1oncc1C(=O)Nc1ccc(C(F)(F)F)cc1", "note": "[Leflunomide]", "Approximate time to benefit": "4-12 weeks (skewed earlier)"}
{"molecule": "CN(Cc1cnc2nc(N)nc(N)c2n1)c1ccc(C(=O)N[C@@H](CCC(=O)O)C(=O)O)cc1", "note": "[Methotrexate]", "Approximate time to benefit": "1-2 months"}
{"molecule": "O=C(O)c1cc(/N=N/c2ccc(S(=O)(=O)Nc3ccccn3)cc2)ccc1O", "note": "[Sulfasalazine]", "Approximate time to benefit": "1-3 months"}
{"molecule": "Etanercept", "Approximate time to benefit": "A few days to 12 weeks"}
